One assay concerns pERK in NCI-H358 cells. Put plainly: Cell-based pERK HTRF assay. The conditions noted are these: 30 min incubation, read-out: pERK in NCI-H358 cell inhibition IC50. Put shortly:
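Cells seeded at 4×10^4/well in RPMI with 10% FBS, then next day treated for 30 min with a 9-point, 3-fold series from 75 μM top concentration at 0.25% DMSO. Lysates were read for pERK by HTRF (d2/Eu cryptate antibodies) after 4–24 h at room temperature, emission at 615 nm.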

For assay [1], the target named is T1, Avi-KRAS G12C (1-169) GppNHp/RAF1 RBD-3×FLAG (52-151) (Homo sapiens, UniProt P01116, G12C).
T1 construct: Avi-KRAS G12C (1-169) GppNHp/RAF1 RBD-3×FLAG (52-151)
Put plainly: Raf1 RBD-KRAS G12C-GppNHp disruption (protein:protein interaction HTRF assay). The format is biochemical. Put shortly:
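HTRF measuring disruption of 50 nM Avi-KRAS G12C (1-169) loaded with GppNHp binding RAF1 RBD-3×FLAG (52-151), in pH 7.5 Tris buffer with 5 mM MgCl2, 0.1% BSA, 10% DMSO. KRAS preincubated with compound 1 h, then RBD 1 h, then detection reagents 1 h, all at room temperature. Compound titration 30-0.02 μM; activity expressed as percent of DMSO control.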
For orientation: TR-FRET usually uses a lanthanide donor and a delayed reading to cut background.

The target of assay [2] is T2, GppNHp-loaded KRAS4b (amino acids 1-169) G12C/C118S protein (Homo sapiens, UniProt P01116, C118S/G12C).
T2 construct: KRAS4b (amino acids 1-169) G12C/C118S protein; made in house
Put plainly: Covalent cysteine 12 modification by MALDI-TOF MS, GppNHp-loaded KRAS G12C. To be noted: 15 minutes reaction time point. Format: binding. Put shortly:
(§1)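 KRAS4b 1-169 G12C/C118S loaded with GDP, GppNHp or GTP was used at 1 μM in 20 mM HEPES, 150 mM NaCl, 1 mM MgCl2, pH 7.3, and incubated with compound (5 mM DMSO stock) at room temperature in the dark. % modification at 15 min is adduct peak height over total protein peak heights by linear-mode MALDI-TOF.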

Assay [3] has as its target T3, GDP-loaded KRAS4b (amino acids 1-169) G12C/C118S protein (Homo sapiens, UniProt P01116, C118S/G12C).
T3 construct: KRAS4b (amino acids 1-169) G12C/C118S protein; made in house
The assay can be described thus: Covalent cysteine 12 modification by MALDI-TOF MS, GDP-loaded KRAS G12C. The format is binding. The conditions noted are these: 15 minutes reaction time point. The gist of the method:
as §1

Where two headings read alike, the source gives them in different places.

Consider `C=CC(=O)N1CC(Oc2nc(OC[C@@]34CCCN3C[C@H](F)C4)nc3c(F)c(-c4ccc(F)c5sc(N)nc45)c(C(F)(F)F)cc23)C1` [Compound 7, 1-(3-((7-(2-amino-7-fluorobenzo[d]thiazol-4-yl)-8-fluoro-2-(((2R,7aS)-2-fluorotetrahydro-1H-pyrrolizin-7a (5H)-yl)methoxy)-6-(trifluoromethyl)quinazolin-4-yl)oxy)azetidin-1-yl) prop-2-en-1-one], for which the concentration for half-maximal inhibition (IC50) with pERK in NCI-H358 cells (Homo sapiens, NCI-H358, 0.5 h) is above 1000 nM; in assay [1], above 20000 nM. Further, the “GppNHp-KRAS G12C percent of modification” value in assay [2] is reported as “D (percent of modification <10%)”. Besides, the “GDP-KRAS G12C percent of modification” value in assay [3] is recorded as “D (percent of modification <10%)”.
`C=CC(=O)N1CC[C@@H](Oc2nc(OC[C@@H]3CCCN3C)nc3c(F)c(-c4ccc(F)c5sc(N)nc45)c(C(F)(F)F)cc23)C1` [Compound 13]: the half-inhibitory concentration (IC50) with pERK in NCI-H358 cells (Homo sapiens, NCI-H358, 0.5 h) is 100 to 1000 nM; in assay [1] it was at most 500 nM. Besides, in assay [2], the “GppNHp-KRAS G12C percent of modification” value was “B (50≤percent of modification <70%)”. Moreover, in assay [3], the “GDP-KRAS G12C percent of modification” value is “A (percent of modification ≥70%)”.
In the case of `C=CC(=O)N1CC(Oc2nc(OC[C@@H]3CCCN3C)nc3c(F)c(-c4ccc(F)c5sc(N)nc45)c(C(F)(F)F)cc23)C1` [Compound 22], the 50% inhibitory concentration (IC50) in the assay with pERK in NCI-H358 cells (Homo sapiens, NCI-H358, 0.5 h) was at most 100 nM; in assay [1], at most 500 nM. Besides, the “GppNHp-KRAS G12C percent of modification” value in assay [2] is “C (10%≤modification <50%)”. For the same molecule, the “GDP-KRAS G12C percent of modification” value in assay [3] is “A (percent of modification ≥70%)”.
In the same order, the values of `C=CC(=O)N1CC(Oc2nc(OC[C@@H]3C[C@@H](F)CN3C)nc3c(F)c(-c4ccc(F)c5sc(N)nc45)c(C(F)(F)F)cc23)C1` [Compound 23] are 100 to 1000 nM, 500 to 5000 nM, “C (10%≤modification <50%)” and “B (50≤percent of modification <70%)”.
For `C=CC(=O)N1CC(Oc2nc(OC[C@@H]3C[C@@H](OC)CN3C)nc3c(F)c(-c4ccc(F)c5sc(N)nc45)c(C(F)(F)F)cc23)C1` [Compound 26], in that order: at most 100 nM, 500 to 5000 nM, “C (10%≤modification <50%)” and “A (percent of modification ≥70%)”.
For `C=CC(=O)N1C[C@H](Oc2nc(OC[C@@]34CCCN3C[C@H](F)C4)nc3c(F)c(-c4ccc(F)c5sc(N)nc45)c(C(F)(F)F)cc23)[C@@H](F)C1` [Compound 28, 1-((3S,4S)-3-((7-(2-amino-7-fluorobenzo[d]thiazol-4-yl)-8-fluoro-2-(((2R,7aS)-2-fluorotetrahydro-1H-pyrrolizin-7a (5H)-yl)methoxy)-6-(trifluoromethyl)quinazolin-4-yl)oxy)-4-fluoropyrrolidin-1-yl) prop-2-en-1-one], in that order: at most 100 nM, at most 500 nM, “A (percent of modification ≥70%)” and “A (percent of modification ≥70%)”.
`C=CC(=O)N1CC[C@@H](Oc2nc(OC[C@@]34CCCN3C[C@H](F)C4)nc3c(F)c(-c4ccc(F)c5sc(N)nc45)c(C(F)(F)F)cc23)[C@H]1C` [Compound 29, 1-((2R,3R)-3-((7-(2-amino-7-fluorobenzo[d]thiazol-4-yl)-8-fluoro-2-(((2R,7aS)-2-fluorotetrahydro-1H-pyrrolizin-7a (5H)-yl)methoxy)-6-(trifluoromethyl)quinazolin-4-yl)oxy)-2-methylpyrrolidin-1-yl) prop-2-en-1-one]: the IC50 is at most 100 nM in the assay on pERK in NCI-H358 cells (Homo sapiens, NCI-H358, 0.5 h) and at most 500 nM in assay [1]. The “GppNHp-KRAS G12C percent of modification” value in assay [2] is given as “A (percent of modification ≥70%)”. The “GDP-KRAS G12C percent of modification” value in assay [3] is “A (percent of modification ≥70%)”.
Regarding `C=CC(=O)N1CC(Oc2nc(OC[C@@]34CCCN3C[C@H](F)C4)nc3c(F)c(-c4ccc(F)c5sc(N)nc45)c(C(F)(F)F)cc23)[C@@H](C)C1` (stereo partly drawn) [Compound 34], the IC50 in the assay with pERK in NCI-H358 cells (Homo sapiens, NCI-H358, 0.5 h) was at most 100 nM; in assay [1], at most 500 nM. Moreover, the “GppNHp-KRAS G12C percent of modification” value in assay [2] is listed as “B (50≤percent of modification <70%)”. The “GDP-KRAS G12C percent of modification” value in assay [3] was “A (percent of modification ≥70%)”.
In the case of `C=CC(=O)N1CC(Oc2nc(OC[C@@]34CCCN3C[C@H](F)C4)nc3c(F)c(-c4ccc(F)c5sc(N)nc45)c(C(F)(F)F)cc23)[C@@H](C)C1` (stereo partly drawn) [Compound 35], the figures for the IC50 (in the assay on pERK in NCI-H358 cells; in assay [1]) were 100 to 1000 nM and 500 to 5000 nM, respectively. For the same molecule, the “GppNHp-KRAS G12C percent of modification” value in assay [2] is “D (percent of modification <10%)”. Also, the “GDP-KRAS G12C percent of modification” value in assay [3] is “C (10%≤modification <50%)”.
Turning to `C=CC(=O)N1CC[C@@H](Oc2nc(OC[C@@]34CCCN3C[C@H](F)C4)nc3c(F)c(-c4ccc(F)c5oc(N)nc45)c(C(F)(F)F)cc23)C1` [Compound 36, 1-((3R)-3-((7-(2-amino-7-fluorobenzo[d]oxazol-4-yl)-8-fluoro-2-(((2R,7aS)-2-fluorotetrahydro-1H-pyrrolizin-7a (5H)-yl)methoxy)-6-(trifluoromethyl)quinazolin-4-yl)oxy)pyrrolidin-1-yl) prop-2-en-1-one], the IC50 was at most 100 nM with pERK in NCI-H358 cells (Homo sapiens, NCI-H358, 0.5 h) and at most 500 nM in assay [1]. Moreover, the “GppNHp-KRAS G12C percent of modification” value in assay [2] is recorded as “C (10%≤modification <50%)”. Moreover, in assay [3], the “GDP-KRAS G12C percent of modification” value is listed as “C (10%≤modification <50%)”.
For `C=CC(=O)N1C[C@@H](F)[C@@H](Oc2nc(OC[C@@]34CCCN3C[C@H](F)C4)nc3c(F)c(-c4ccc(F)c5sc(N)nc45)c(C(F)(F)F)cc23)C1` [Compound 40, 1-((3S,4R)-3-((7-(2-amino-7-fluorobenzo[d]thiazol-4-yl)-8-fluoro-2-(((2R,7aS)-2-fluorotetrahydro-1H-pyrrolizin-7a (5H)-yl)methoxy)-6-(trifluoromethyl)quinazolin-4-yl)oxy)-4-fluoropyrrolidin-1-yl) prop-2-en-1-one], the IC50 in the assay on pERK in NCI-H358 cells (Homo sapiens, NCI-H358, 0.5 h) is at most 100 nM; in assay [1] it was at most 500 nM. In assay [2], the “GppNHp-KRAS G12C percent of modification” value was “A (percent of modification ≥70%)”. The “GDP-KRAS G12C percent of modification” value in assay [3] is reported as “A (percent of modification ≥70%)”.
For the molecule `C=CC(=O)N1CC[C@@H](Oc2nc(OC[C@@]34CCCN3C[C@H](F)C4)nc3c(F)c(-c4ccc(F)c5sc(N)nc45)ncc23)C1` [Compound 43], the IC50 with pERK in NCI-H358 cells (Homo sapiens, NCI-H358, 0.5 h) is above 1000 nM; in assay [1], 500 to 5000 nM. For the same molecule, the “GppNHp-KRAS G12C percent of modification” value in assay [2] is “C (10%≤modification <50%)”. The “GDP-KRAS G12C percent of modification” value in assay [3] is “A (percent of modification ≥70%)”.

One may read the IC50 as the concentration needed to halve the response being measured.
